From patent US20230021483A1, “[…] […] METHOD AND CLASSIFICATION OF PHARMACEUTICAL COMPONENTS BY USING TRANSCRIPTOMES” (National Institutes of Biomedical Innovation, Health and …, priority 2016, published 2023)
“Also recorded” adds a separate entry of the source.

Tested on: preferentially upregulated genes in LV, SP, LN
Assay: Z-score-based differential gene expression analysis (adjuvant group- or adjuvant-associated genes, 40 module mapping, TargetMine annotation)
Format: in vivo, C57BL/6 mice
Settings: for Rnf213 1455500_at (Group G1, Modules 20) / Rsad2 1436058_at (Group G1, Modules 20) / Shisa5 1423986_a_at (Group G1, Modules 20) / Shisa5 1437503_a_at (Group G1, Modules 20) / Stat1 1450033_a_at (Group G1, Modules 20) / Stat1 1450034_at (Group G1, Modules 20) / Tdrd7 1426716_at (Group G1, Modules 20) / Tor1aip2 1418115_s_at (Group G1, Modules 20) / Tor1aip2 1418116_at (Group G1, Modules 20) / Tor1aip2 1435526_at (Group G1, Modules 20) / Trim12a 1437432_a_at (Group G1, Modules 20) / Uba7 1426970_a_at (Group G1, Modules 20) / Adar 1425405_a_at (Group G1, Modules 20) / Adar 1434268_at (Group G1, Modules 20) / Ddx58 1436562_at (Group G1, Modules 20) / Ddx58 1456890_at (Group G1, Modules 20) / Eif2ak2 1422005_at (Group G1, Modules 20) / G3bp2 1421323_a_at (Group G1, Modules 20) / Gm9706///Isg15 1431591_s_at (Group G1, Modules 20) / H2-T10///H2-T22///H2-T9 1449875_s_at (Group G1, Modules 20) / Ifih1 1426276_at (Group G1, Modules 20) / Ifit1 1450783_at (Group G1, Modules 20) / Ifit3 1449025_at (Group G1, Modules 20) / Irf7 1417244_a_at (Group G1, Modules 20) / Irgm1 1418825_at (Group G1, Modules 20) / Mndal 1426906_at (Group G1, Modules 20) / Pml 1448757_at (Group G1, Modules 20) / Pml 1456103_at (Group G1, Modules 20): ID, LV
How it was run: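 Per-sample fold-change values converted to gene-wise z-scores within each organ's data set, then triplicate z-scores summed per adjuvant. Genes with summed score >3 taken as preferentially expressed; gene groups defined by combined per-adjuvant z-score thresholds (z>1 to z>3) specific to each organ.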

## Nc1nc2c(ncn2[C@@H]2O[C@@H]3COP(=O)(O)O[C@H]4[C@@H](O)[C@H](n5cnc6c(=O)[nH]c(N)nc65)O[C@@H]4COP(=O)(O)O[C@H]3[C@H]2O)c(=O)[nH]1 [cdiGMP, Cyclic diguanylate monophosphate]
Sample x1
  Rnf213 1455500_at (Group G1, Modules 20): 2.07
  Rsad2 1436058_at (Group G1, Modules 20): 2.39
  Shisa5 1423986_a_at (Group G1, Modules 20): 0.72
  Shisa5 1437503_a_at (Group G1, Modules 20): 1.05
  Stat1 1450033_a_at (Group G1, Modules 20): 1.49
  Stat1 1450034_at (Group G1, Modules 20): 0.88
  Tdrd7 1426716_at (Group G1, Modules 20): 1.47
  Tor1aip2 1418115_s_at (Group G1, Modules 20): 1.81
  Tor1aip2 1418116_at (Group G1, Modules 20): 1.58
  Tor1aip2 1435526_at (Group G1, Modules 20): 0.94
  Trim12a 1437432_a_at (Group G1, Modules 20): 0.73
  Uba7 1426970_a_at (Group G1, Modules 20): 0.53
Sample x2
  Adar 1425405_a_at (Group G1, Modules 20): 1.67
  Adar 1434268_at (Group G1, Modules 20): 1.83
  Ddx58 1436562_at (Group G1, Modules 20): 0.88
  Ddx58 1456890_at (Group G1, Modules 20): 1.45
  Eif2ak2 1422005_at (Group G1, Modules 20): 1.38
  G3bp2 1421323_a_at (Group G1, Modules 20): 1.5
  Gm9706///Isg15 1431591_s_at (Group G1, Modules 20): 0.94
  H2-T10///H2-T22///H2-T9 1449875_s_at (Group G1, Modules 20): 1.04
  Ifih1 1426276_at (Group G1, Modules 20): 1.09
  Ifit1 1450783_at (Group G1, Modules 20): 2.28
  Ifit3 1449025_at (Group G1, Modules 20): 1.75
  Irf7 1417244_a_at (Group G1, Modules 20): 1.21
  Irgm1 1418825_at (Group G1, Modules 20): 1.29
  Mndal 1426906_at (Group G1, Modules 20): 2.45
  Pml 1448757_at (Group G1, Modules 20): 1.57
  Pml 1456103_at (Group G1, Modules 20): 1.3
  Rnf213 1455500_at (Group G1, Modules 20): 2.08
  Rsad2 1436058_at (Group G1, Modules 20): 2.41
  Shisa5 1423986_a_at (Group G1, Modules 20): 1.07
  Shisa5 1437503_a_at (Group G1, Modules 20): 1.12
  Stat1 1450033_a_at (Group G1, Modules 20): 1.44
  Stat1 1450034_at (Group G1, Modules 20): 1.02
  Tdrd7 1426716_at (Group G1, Modules 20): 1.15
  Tor1aip2 1418115_s_at (Group G1, Modules 20): 1.67
  Tor1aip2 1418116_at (Group G1, Modules 20): 1.33
  Tor1aip2 1435526_at (Group G1, Modules 20): 0.83
  Trim12a 1437432_a_at (Group G1, Modules 20): 0.83
  Uba7 1426970_a_at (Group G1, Modules 20): 1.46
Sample x3
  Adar 1425405_a_at (Group G1, Modules 20): 1.66
  Adar 1434268_at (Group G1, Modules 20): 2.95
  Ddx58 1436562_at (Group G1, Modules 20): 1.49
  Ddx58 1456890_at (Group G1, Modules 20): 2.07
  Eif2ak2 1422005_at (Group G1, Modules 20): 1.93
  G3bp2 1421323_a_at (Group G1, Modules 20): 2.34
  Gm9706///Isg15 1431591_s_at (Group G1, Modules 20): 2.02
  H2-T10///H2-T22///H2-T9 1449875_s_at (Group G1, Modules 20): 2.06
  Ifih1 1426276_at (Group G1, Modules 20): 1.65
  Ifit1 1450783_at (Group G1, Modules 20): 2.4
  Ifit3 1449025_at (Group G1, Modules 20): 2.34
  Irf7 1417244_a_at (Group G1, Modules 20): 1.92
  Irgm1 1418825_at (Group G1, Modules 20): 1.81
  Mndal 1426906_at (Group G1, Modules 20): 2.76
  Pml 1448757_at (Group G1, Modules 20): 2.16
  Pml 1456103_at (Group G1, Modules 20): 2.58
  Rnf213 1455500_at (Group G1, Modules 20): 3.16
  Rsad2 1436058_at (Group G1, Modules 20): 2.39
  Shisa5 1423986_a_at (Group G1, Modules 20): 1.57
  Shisa5 1437503_a_at (Group G1, Modules 20): 1.32
  Stat1 1450033_a_at (Group G1, Modules 20): 2.11
  Stat1 1450034_at (Group G1, Modules 20): 2.07
  Tdrd7 1426716_at (Group G1, Modules 20): 2.22
  Tor1aip2 1418115_s_at (Group G1, Modules 20): 2.42
  Tor1aip2 1418116_at (Group G1, Modules 20): 2.19
  Tor1aip2 1435526_at (Group G1, Modules 20): 1.54
  Trim12a 1437432_a_at (Group G1, Modules 20): 1.46
  Uba7 1426970_a_at (Group G1, Modules 20): 1.41
LN, z-scores and 40 module mapping
  interferon induction relative to adjuvants targeting the same receptor: strongest interferon inducer; also recorded: induced more interferon responses in vivo than the other sting ligands
Among cdiGMP/cGAMP/DMXAA, LN
  preference, 1417252_at Ptgs2: cdiGMP
  preference, 1417263_at Ptgs2: cdiGMP
  preference, 1418424_at Tnfaip6: cdiGMP
  preference, 1419132_at Tfr2: cdiGMP
  preference, 1419508_at Ripk1: cdiGMP
  preference, 1419534_at Olr1: cdiGMP
  preference, 1419721_at Niacr1: cdiGMP
  preference, 1421457_a_at Samsn1: cdiGMP
  preference, 1421473_at Il1a: cdiGMP
  preference, 1421578_at Ccl4: cdiGMP
  preference, 1421679_a_at Cdkn1a: cdiGMP
  preference, 1422054_a_at 5kil: cdiGMP
  preference, 1422305_at Ifnb1: cdiGMP
  preference, 1423028_at Ifna2: cdiGMP
  preference, 1424638_at Cdkn1a: cdiGMP
  preference, 1425687_at Cflar: cdiGMP
  preference, 1425837_a_at Ccrn4l: cdiGMP
  preference, 1427736_a_at Ccrl2: cdiGMP
  preference, 1428027_at LOC100653389: cdiGMP
  preference, 1428735_at Cd69: cdiGMP
  preference, 1433508_at Klf6: cdiGMP
  preference, 1434350_at Csrnp1: cdiGMP
  preference, 1436387_at C330006P03Rik///Homer1: cdiGMP
  preference, 1439349_at Sbno2: cdiGMP
  preference, 1439680_at Tnfsf10: cdiGMP
  preference, 1439981_at Tespa1: cdiGMP
  preference, 1441843_s_at 5230400M03Rik: cdiGMP
  preference, 1442556_at ---: cdiGMP
  preference, 1443414_at C78513: cdiGMP
  preference, 1444010_at Eif4e: cdiGMP
  preference, 1444598_at ---: cdiGMP
  preference, 1445534_at ---: cdiGMP
  preference, 1446245_at ---: cdiGMP
  preference, 1448325_at Ppp1r15a: cdiGMP
  preference, 1448724_at Cish: cdiGMP
  preference, 1449169_at Has2: cdiGMP
  preference, 1449311_at Bach1: cdiGMP
  preference, 1450297_at Il6: cdiGMP
  preference, 1451340_at Arid5a: cdiGMP
  preference, 1453636_at Pcgf5: cdiGMP
  preference, 1453851_a_at Gadd45g: cdiGMP
  preference, 1455197_at Rnd1: cdiGMP
  preference, 1455899_x_at Socs3: cdiGMP
  preference, 1457404_at Nfkbiz: cdiGMP
  preference, 1457888_at ---: cdiGMP
  preference, 1457944_at ---: cdiGMP
  preference, 1458376_at B930025B16Rik: cdiGMP
  preference, 1458589_at ---: cdiGMP
  preference, 1459144_at ---: cdiGMP
z-score selected genes, TargetMine and IPA upstream cytokine analyses
  adjuvant group-associated biological features: strongly associated with type I and type II interferon responses
